Patent publication US11207343B2, “Compositions and therapeutic methods” (AyuVis Research LLC, priority 2016, dated 2021)

Tests used:
[1] = test system: LPS induced cytokines (TNF-α, IL-1β and IL-6) in human monocytes; test: Inhibition of LPS induced inflammatory mediators in human monocytes; assay type: cell-based; conditions: for inhibition of LPS induced TNF-α production: 100 μM; for inhibiting LPS induced inflammation biomarkers (TNF-α, IL-1β and IL-6) in human monocytes: concentration not given
Description: To understand the structural requirement and limitations to probe the TLR4 binding pocket for optimal potency and efficacy, we have studied the ability of chitooligomers to inhibit LPS induced inflammation in human monocytes (FIG-8 A-B). Compounds 1-4 inhibited LPS induced cytokines TNF-α, IL-1β and IL-6) in a statistically significant manner at 10 μM concentration. […] The protocol was followed as described [Panda etal, PLoS Pathog 2012, 8, e1002717]. Human monocytes were stimulated with LPS along with the series of compounds (10 μM) for 48 h. TNF-α, IL-1β, I1-6 in culture supernatants were quantified according to the manufacturer's instruction. Similarly, other analogs were assessed for their ability to inhibit LPS induced TNF-α production in human monocytes.

[2] = test system: LPS induced TNF-α in mouse bone marrow derived macrophages; test: Inflammatory mediator (TNF-α) in mouse bone marrow derived macrophages; assay type: cell-based; conditions: for inhibiting LPS and HMGB1 induced inflammation biomarkers (TNF-α, IL-1β and IL-6): bone derived mouse macrophages; for inhibition of LPS induced production of TNF-α: 100 μM, 8 hours, mouse bone marrow derived macrophages
Description: Bone marrow derived mouse macrophages were treated with 100 μM of the above test compounds for 8 hours. Pro-inflammatory cytokines such as TNF-α protein level was measured by […]. LPS treatment (10 ng/ml) was used as positive control (FIG. 9).

[3] = test system: E. coli (ATCC-25922); test: Lethal gram negative E. coli sepsis mouse model; assay type: in vivo; conditions: 250 μg/animal with 2×10^5 CFU E. coli intraperitoneally, BALB/c mice
Description: In an in vivo mice model, chitohexaose (Compound 1) protected mouse from lethal gram negative sepsis against E. coli. Previously reported bacterial sepsis model [Roger etal, Proc Natl Acad Sci USA. 2009 Feb 17;106(7):2348-52] was recruited to study the efficacy of Compound 1 (FIG-1). Intraperitoneally 2×10^5 CFU of E. coli (ATCC-25922) was injected into BALB/c mice with and without Compound 1 (250 μg/animal). E. coli mediated sepsis induced mortality whereas simultaneous treatment of mice with Compound 1 protected (40%) from sepsis induced death. The above result explained that bacteria induced sepsis and mortality is inhibited and delayed for a certain period of time which may provide a window for therapy.

[4] = test system: MRSA and MSSA strains; test: Activity against MRSA and MSSA strains compared to colistin; assay type: cell-based, S. aureus; conditions: colistin as positive control
From the text: (§1) Further we studied their biofilm inhibition and eradication activities against biofilm cells as described previously [Ceri et al, Journal of Clinical Microbiology 1999, 37, 1771-1776]. […] Thus, these compounds with activities against S. aureus biofilms will have significant impact on controlling recalcitrant biofilm-mediated endovascular infections [Li et al, J Infect Dis. 2016 Nov. 1;214(9):1421-1429; Archer et al, Virulence 2011, 2, 445-459]. Briefly, we used Calgary Biofilm Device (CBD) technology for the biofilm susceptibilities to compounds. The CBD produces 96 equivalent biofilms for the assay of antibiotic susceptibilities by the standard 96-well technology. Susceptibility to a standard group of compounds and antibiotics was determined for National Committee for Clinical Laboratory Standards (NCCLS) as described previously.

[5] = test system: HMGB1 induced VEGF production in ARPE-19 cells; test: HMGB1 induced VEGF production in ARPE-19 cells (ELISA); assay type: cell-based, human; conditions: 50 μg/mL, 100 ng/mL HMGB1, 24 h, p<0.01
From the text: Central to photoreceptor survival and function, the RPE is the major source of the angiogenic factor VEGF and therefore plays a central role in the modulation and progression of choroidal neovascularization [Spilsbury et al, The American Journal of Pathology 2000, 157, 135-144; Betts et al, ISRN Ophthalmology 2011, 2011, 184295] leading to AMD. As part of our preliminary result to evaluate if compounds 1 and 2 can inhibit the HMGB1 (an endogenous ligand for TLR4) induced VEGF production in ARPE-19 cells. […] 2×10^5 ARPE-19 cells were seeded in 24 well plate for 24 h in full medium containing 10% serum following which they were maintained for additional 24 h with serum free medium. Cells were treated with 0 μg/mL (medium) or 100 ng/mL of HMGB1 along with or without of 50 μg/mL of test compounds for 24 h. Supernatant was collected and assayed using human VEGF ELISA kit from Peprotech according to manufacturer's instructions. RPE cells are located adjacent to choroidal capillaries and other major ocular vasculatures.

[6] = test system: laser-induced choroidal neovascularization; test: Laser-induced CNV mouse model for wet AMD; assay type: in vivo, C57BL/6 mice
From the text: The parameters used to reproducibly obtain successful laser spots (as confirmed by a gas bubble formation indicating rupture of Bruch membrane) were: 350 mW, 75 msec, and 50 μm spot size. Four laser spots were applied; 2-3 disc diameters from the optic nerve. […] By the end of the experiment, mouse eyes were examined by fundus fluorescein angiography and/or optical coherence tomography (OCT) to visualize the CNV lesions. Afterwards animals were sacrificed and RPE/choroid/sclera flat mounts were prepared and stained with both FITC-conjugated isolectin B4 and anti-ICAM-2 antibody to quantitatively measure the size of CNV. We have performed two experiments to test the effects of 1, 2, 26 on laser-induced CNV.

[7] = test system: gram negative (E. Coli, P. Aeruginosa, A, Baumannii, K. Pneumonia), gram positive (MRSA), fungus (C. Albicans); test: MIC broth microdilution antimicrobial screen; assay type: cell-based
From the text: The compounds were screened against selected gram negative (E. Coli, P. Aeruginosa, A, Baumannii, K. Pneumonia), gram positive (MRSA) as well as fungus (C. Albicans) mostly found in burn and septic wounds. […] All prepared compounds have been evaluated in a Minimum Inhibitory Concentrations (MIC) assay with both test and control articles in accordance with guidelines of the Clinical Laboratory Standards Institute (CLSI) for broth microdilution susceptibility testing. Briefly, test and control compounds have been dissolved in DMSO, diluted to proper concentrations and added to 96-well microdilution trays. Brain Heart Infusion Broth (BHI) was used for studies with bacterial strains such as S. aureus, E. coli, P. Aeruginosa, K pneumoniae, A. baumannii and Candida albicans. Compounds were diluted serially from 200 μg/ml to 0.0625 μg/ml and plated in 96 well plates, and inoculated with approximately 1×10^5 CFU of each organism.

[8] = test system: S. aureus biofilms (MRSA, MSSA); test: Biofilm inhibition and eradication, Calgary Biofilm Device; assay type: cell-based
From the text: as §1

Row | Compound | inhibition of LPS induced TNF-α production ([1]; human monocytes) | inhibiting LPS induced inflammation biomarkers (TNF-α, IL-1β and IL-6) in human monocytes [1] | inhibiting LPS and HMGB1 induced inflammation biomarkers (TNF-α, IL-1β and IL-6) [2] | inhibition of LPS induced production of TNF-α [2] | activity against MRSA and MSSA strains compared to colistin [4] | HMGB1 induced VEGF production [5] | other results
1 | COCC1OC(Oc2ccc([N+](=O)[O-])cc2)C(NC(C)=O)C(O)C1O (stereo not shown) [Compound 16] | potent inhibitor | – | – | – | – | – | –
2 | chitooctaose [Compound 3] | – | unexpectedly potent activity | unexpectedly potent activity | – | – | – | –
3 | chitohexaose [Compound 1] | – | – | – | Inhibits | better activity | effectively reduced | protection from sepsis induced death [3]: 40%
4 | CC1(C)CC(C(=O)NC2C(OC3C(CO)OC(O)C(N)C3O)OC(CO)C(OC3OC(CO)C(O)C(O)C3N)C2O)CC(C)(C)N1[O] (stereo not shown) [Compound 11] | – | unexpectedly superior activity | – | – | – | – | –
5 | chitohepatose [Compound 2] | – | unexpectedly potent activity | unexpectedly potent activity | Inhibits | – | effectively reduced | potency relative to chitohexaose (Compound 1), percentage of inhibition of LPS mediated induction of inflammatory cytokines ([1]; 10 μM, human monocytes): more potent than chitohexaose; average size of CNV lesions, relative to control mice treated with vehicle only ([6]; 200 μg daily i.p. injection): about 60%; decrease of choroidal neovascularization ([6]; as worded in heading of Example 16): ~60%
6 | CC(=O)NC1C(OC2C(CO)OC(Oc3ccc4c(C)cc(=O)oc4c3)C(NC(C)=O)C2O)OC(CO)C(O)C1O (stereo not shown) [Compound 12] | potent inhibitor | – | – | – | better activity | – | broad spectrum antimicrobial activity against gram negative, gram positive bacteria and fungus [7]: broad spectrum antimicrobial activity; inhibition of biofilm formation by MSSA and MRSA [8]: unexpectedly inhibited biofilm formation
